Reference: PubChem BioAssay AID1645863 (Buhrlage Lab, Dana-Farber Cancer Institute and Novartis …, 2021)
Activity calls are given as the source filed them. The rule behind the calls is not given here.

Target: Ubiquitin carboxyl-terminal hydrolase 10 (Homo sapiens) (UniProt Q14694)
Test: primary hit verification, biochemical, ubiquitin-specific protease 10 deubiquitylase inhibitors, concentration-effect titration (AID 1645863);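 note: potency values describe inhibition of USP10 cleavage of a fluorogenic ubiquitin substrate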
Conditions: USP10 deubiquitinase enzymatic assay

Chain of Ubiquitin carboxyl-terminal hydrolase 10 (Homo sapiens) (Q14694 whole entry, looked up): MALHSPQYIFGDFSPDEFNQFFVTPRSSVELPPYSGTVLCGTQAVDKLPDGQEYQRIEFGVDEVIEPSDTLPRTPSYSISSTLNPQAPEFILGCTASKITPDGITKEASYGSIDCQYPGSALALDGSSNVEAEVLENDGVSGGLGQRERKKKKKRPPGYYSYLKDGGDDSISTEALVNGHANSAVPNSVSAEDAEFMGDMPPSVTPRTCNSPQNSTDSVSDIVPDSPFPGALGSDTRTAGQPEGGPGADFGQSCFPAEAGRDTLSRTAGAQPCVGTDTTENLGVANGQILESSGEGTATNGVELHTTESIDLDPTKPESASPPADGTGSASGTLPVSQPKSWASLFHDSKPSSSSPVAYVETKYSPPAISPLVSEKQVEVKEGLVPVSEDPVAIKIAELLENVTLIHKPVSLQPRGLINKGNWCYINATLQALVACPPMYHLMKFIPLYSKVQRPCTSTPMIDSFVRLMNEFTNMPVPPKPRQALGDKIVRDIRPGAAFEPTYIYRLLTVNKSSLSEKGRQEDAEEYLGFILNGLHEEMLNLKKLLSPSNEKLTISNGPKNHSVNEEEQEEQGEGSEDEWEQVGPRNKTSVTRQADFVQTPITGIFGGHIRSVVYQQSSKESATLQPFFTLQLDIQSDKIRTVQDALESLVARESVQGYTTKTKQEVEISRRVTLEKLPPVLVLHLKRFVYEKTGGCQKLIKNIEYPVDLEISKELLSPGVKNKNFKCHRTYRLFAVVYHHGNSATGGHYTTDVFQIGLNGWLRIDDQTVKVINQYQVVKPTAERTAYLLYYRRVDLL

Q: With O=C(CSc1ccc2nnc(-c3ccc(Cl)cc3)n2n1)N1CCCCC1 as the compound, how does the IC50 read?
A: The IC50 was > 40 µM (inactive).

Q: Which IC50 does the source give for CCCn1c(=O)c(-c2ccc(C(=O)NCc3ccc(OC)cc3)cc2)nc2cccnc21 here?
A: Its IC50 is > 40 µM (inactive).

Q: Which IC50 does the source give for Cc1ccc(NC(=O)Nc2ccc(C)n(CC(=O)Nc3ccc(C)cc3C)c2=O)cc1 here?
A: The IC50 was 21.9 µM.

Q: For Cc1ccc(C(=O)c2cn(CC(=O)Nc3ccc4c(c3)OCO4)c3ccccc3c2=O)cc1, which IC50 is on record?
A: Its IC50 is 16.4 µM.

Q: Which IC50 does the source give for COc1ccc(CC(=O)Nc2ccccc2-c2nc3ccccc3[nH]2)cc1OC here?
A: Its IC50 is 36.7 µM.

Q: O=C1CC(c2ccccc2)n2ncnc2N1 (stereo not drawn) was tested. Which IC50 did it give?
A: The IC50 was > 40 µM (inactive).

Q: For O=C(Cn1c(=O)n(CCC(=O)N2CCc3ccccc3C2)c(=O)c2ccccc21)NCc1ccccc1Cl, which IC50 is on record?
A: The IC50 was > 40 µM (inactive).

Q: How did the IC50 turn out when CCc1cccc(NC(=O)Cc2nnc3ccc(-c4nc(C)no4)cn23)c1 was run?
A: The IC50 was > 40 µM (inactive).

Q: How did the IC50 turn out when Cn1cc(NC(=O)Nc2cccc3ccccc23)c2ccccc21 was run?
A: The IC50 was > 40 µM (inactive).

Q: How did the IC50 turn out when COc1ccc(-c2ccc3cc(C(=O)O)ccc3c2)cc1C12CC3CC(CC(C3)C1)C2 was run?
A: Its IC50 is 5.77 µM.

Q: Which IC50 does the source give for COc1ccc(-c2nc(-c3cc4cc(OC)ccc4[nH]c3=O)no2)cc1 here?
A: The IC50 was > 40 µM (inactive).

Q: With COc1cc(NS(=O)(=O)c2ccc(NC(=O)COc3ccc(C)cc3Br)cc2)nc(OC)n1 as the compound, how does the IC50 read?
A: Its IC50 is 38.6 µM.

Q: Which IC50 does the source give for O=c1c2ccccc2nc(CSc2cccc(Cl)c2Cl)n1-c1ccccc1 here?
A: Its IC50 is > 40 µM (inactive).

Q: O=C(Nc1ccc(Cn2cnc(-c3nc(-c4ccccc4)no3)c2)cc1)c1ccccc1F was tested. Which IC50 did it give?
A: Its IC50 is > 40 µM (inactive).

Q: Which IC50 does the source give for O=C(CCCc1nnc2c(=O)n(-c3cccc(F)c3)ccn12)NCc1ccc(Cl)cc1 here?
A: Its IC50 is 18.2 µM.

Q: COc1ccccc1-c1nc(-c2cn(-c3ccc(F)cc3)nn2)no1 was tested. Which IC50 did it give?
A: Its IC50 is 15.6 µM.

Q: How did the IC50 turn out when O=C(NC1CCCCC1)C(c1ccc(F)cc1)N(C(=O)C1COc2ccccc2O1)c1ccc2c(c1)OCO2 (stereo not drawn) was run?
A: The IC50 was > 40 µM (inactive).

Q: With Cc1ccnc(Nc2nc(-c3ccccc3)c3cc(Cl)ccc3n2)n1 as the compound, how does the IC50 read?
A: Its IC50 is 14.7 µM.

Q: CCc1cccc(CC)c1NC(=O)COC(=O)c1cc2cccc(OC)c2oc1=O was tested. Which IC50 did it give?
A: The IC50 was > 40 µM (inactive).

Q: How did the IC50 turn out when O=C(Nc1ccccc1C(F)(F)F)c1cccc(S(=O)(=O)Nc2cc(C(F)(F)F)ccc2Cl)c1 was run?
A: The IC50 was > 40 µM (inactive).

Q: Cc1ccc(Cn2cc(C(=O)Nc3ccccc3C(N)=O)ccc2=O)cc1 was tested. Which IC50 did it give?
A: Its IC50 is 2.81 µM.

Q: With CCCN1CCN(C(=O)Cn2c(C)ccc(NC(=O)c3ccccc3)c2=O)CC1 as the compound, how does the IC50 read?
A: The IC50 was > 40 µM (inactive).

Q: For COc1cc2c(oc(=O)c3cc(C)cc(OC)c32)c2c([C@@H]3OC(C)[C@@H](O)[C@@](C)(O)C3O)ccc(O)c12 (stereo partly drawn), which IC50 is on record?
A: The IC50 was > 40 µM (inactive).

Q: Cc1cc(Nc2ccc(C(=O)NCc3ccco3)cc2)n2nc(-c3cccnc3)nc2n1 was tested. Which IC50 did it give?
A: The IC50 was > 40 µM (inactive).

Q: Which IC50 does the source give for Oc1cccc2nc3c(O)cccc3nc12 here?
A: The IC50 was 11.3 µM.

Q: With COc1cc(O)c2c(O)c3c(cc2c1)C[C@@]1(O)CC(=O)C(C(N)=O)=C(O)[C@@]1(O)C3=O as the compound, how does the IC50 read?
A: Its IC50 is 7.47 µM.

Q: With O=C(CSc1nc2ccccc2[nH]1)Nc1cccc2c1OCCO2 as the compound, how does the IC50 read?
A: The IC50 was > 40 µM (inactive).

Q: With CC(C)c1nnc(NC(=O)C2CC(=O)N(CCc3ccc(F)cc3)C2)s1 (stereo not drawn) as the compound, how does the IC50 read?
A: The IC50 was > 40 µM (inactive).

Q: For C[C@H](Cc1cc2c(cc1O)OCO2)[C@@H](C)Cc1cc2c(cc1O)OCO2, which IC50 is on record?
A: Its IC50 is 19.6 µM.

Q: Which IC50 does the source give for CC(C)CC1NC(=O)C2CCCN2C1=O (stereo not drawn) here?
A: The IC50 was > 40 µM (inactive).

Q: For O=C(Nc1ccccc1Cc1ccccc1)c1nc2n(n1)-c1ccccc1S(=O)(=O)N2, which IC50 is on record?
A: Its IC50 is 25.3 µM.

Q: How did the IC50 turn out when O=C(O)c1nccnc1C(=O)N1CCc2ccccc2C1 was run?
A: The IC50 was > 40 µM (inactive).

Q: How did the IC50 turn out when O=C(CCCc1nnc2c(=O)n(-c3cccc(F)c3)ccn12)NCc1ccc(F)cc1 was run?
A: Its IC50 is 35.3 µM.

Q: Which IC50 does the source give for O=C(Nc1nc(-c2ccccc2)ns1)c1ccc2ncsc2c1 here?
A: Its IC50 is 31.6 µM.

Q: For CSc1nc(N)c2c(n1)N[C@H]1OC[C@H](O)[C@H](O)[C@H]1N2, which IC50 is on record?
A: Its IC50 is > 40 µM (inactive).

Q: Cc1cc(O)c(=O)cc2c1C[C@H]1CC(C)(C)/C=C/C[C@@]3(C)Oc4cc(=O)c(O)cc(C)c4C[C@@H]3C[C@H](O)[C@]1(C)O2 was tested. Which IC50 did it give?
A: Its IC50 is > 40 µM (inactive).

Q: COc1ccc(CCN2COc3c(cc(Cl)c4cccnc34)C2)cc1OC was tested. Which IC50 did it give?
A: Its IC50 is > 40 µM (inactive).

Q: For O=C(NCc1ccc(F)cc1)c1cccc(Nc2nc3ccccc3n3cnnc23)c1, which IC50 is on record?
A: The IC50 was 38 µM.
